Entries after “also recorded” stand apart in the source; their conditions may differ.
Legend:
duodenum, liver or heart = assay: H&E of duodenum, liver and heart of irradiated, treated mice; conditions: 20 Gy irradiated mice, 2 weeks treatment
Method: (§1) Animal studies were carried out at Brown University facilities with approval from Brown University IACUC. C57B1/6 mice (Taconic), mice with bi-allelic loss of TRAIL Death Receptor-(DR5-/-) in a C57B1/6 background, and mice with bi-allelic loss of TRAIL (TRAIL -/-) in a C57B1/6 background were given a single whole-thorax x-ray (Philips RT250) irradiation dose of 20 Gy with shielding of other organs. 8-15-week-old male and female mice of each genotype were used. […] Treatment was continued for two weeks, where TLY012 was administered twice a week and ONC201 was administered once a week. For each genetic background, two mice received a control PO, two mice received TLY012 IP, and two mice received ONC201 PO. Mice were weighed twice a week, and 13 days post-irradiation all mice were euthanized. Organs were harvested from the mice and 600 μL of blood was collected via cardiac puncture for serum cytokine analysis. Organs were preserved in 10% formalin then embedded in paraffin and sectioned at a distance of 5 μm. […] TRAIL-/- female mice were also subjected to a survival study with a single whole-thorax radiation doses of 15 Gy or 18 Gy treated with the same regimen of TLY012 or control (n=2/radiation dose/treatment) (FIG. 3B). […]

[1] = system: mRNA from mouse lung tissue; assay: NanoString nCounter PanCancer Immune Profiling panel, mRNA from mouse lung tissue; assay type: in vivo
Method: One hour before radiation mice were grouped into control or given 10 mg/kg of TLY012 via IP injection (n=3/gender/treatment). Mice were treated and weighed twice a week up until 11 days post-radiation when all mice were euthanized.
Rodent sacrifice was performed following anesthetization with 100 mg/kg ketamine and 10 mg/kg xylazine administered intraperitoneally. ˜400-600 μL blood was first collected throughcardiac puncture with a 26G ⅝″ needle through the intercostal space into the left ventricle. […] 1 mL of 2 mg/mL EDTA in PBS was injected through the right ventricle to perfuse the lungs, after which the lungs were excised, washed further in PBS, submerged in RNAlater (Sigma-Aldrich, #R0901, Missouri, USA), and flash frozen in liquid nitrogen.
Frozen lung tissue was stored long-term at −80° C. Thawing was performed over 16 hours at 4° C. Tissue homogenization was performed with Precellys Lysing Kit (Cayman Chemical Company, #16859, Michigan, USA) and a Bulley Blender Homogenizer (Next Advance, #G14-G15) prior to RNA extraction with QlAgen RNeasy kit (Qiagen, #74104, Hilden, Germany) and cleaned up with QIAgen RNeasy MinElute Cleanup kit (Qiagen, #74204, Hilden, Germany). Quality and concentration were verified by Nanodrop. Extracted RNA samples were gene expression profiled by NanoString nCounter PanCancer Immune Profiling Panel (NanoString Technologies, #XTCSO-MIP1-12, Seattle, WA) according to the manufacturer's instructions.
Nanostring data was analyzed in nSolver Advanced Analysis Software and ROSALIND. Raw data was uploaded to nSolver for automated normalization, background subtraction, and quality control (QC) check. All samples passed QC. Control mice and mice treated with TLY012 lung samples were used to construct two groups to which an unpaired t-test was run to generate the data in the volcano plot that was created in ROSALIND (FIG. 5). Differential expression was determined with p-values and Benjamini-Yekutieli adjusted p-values. Pathway scores are generated in nSolver as a summarization of expression level changes of biologically related groups of genes. Pathway scores are derived from the first Principal Components Analysis (PCA) scores (1st eigenvectors) for each sample based on the individual gene expression levels for all the measured genes within a specific pathway. The cell type score itself is calculated as the mean of the log2 expression levels for all the probes included in the final calculation for that specific cell type.

TRAIL-/- mice [2] = assay: Radiation pneumonitis after whole-thorax x-ray irradiation, H&E of lung, TRAIL-null mice; assay type: in vivo, mouse; conditions: TRAIL-/- male or female mice, 20 Gy thoracic irradiation, two weeks treatment, FIG. 2A, B
Method: as §1

TRAIL-/- mice [3] = assay: Survival after whole-thorax irradiation, TRAIL-/- mice; assay type: in vivo, mouse
Method: Starting one hour before irradiation, mice were treated with either 10 mg/kg of TLY012 (D&D Pharmatech) by intraperitoneal (IP) injection or 100 mg/kg of ONC201/TIC10 (Chimerix/Oncoceutics) by oral gavage (PO) or a control gavage consisting of 20% Cremophor® EL (Sigma #238470) and 70% Dulbecco's phosphate buffered saline solution (Cytiva SH30264.02) per volume via PO (n=2/gender/treatment).

[4] = system: lung tissue in irradiated C57B1/6 mice; assay: Immunohistochemistry of irradiated lung tissue; assay type: in vivo, mouse
Excerpt: Paraffin embedded sections of tissue were deparaffinized in xylene and rehydrated through graded ethanol solutions to phosphate-buffered saline (PBS). Heat-induced antigen retrieval (in 0.01 M citrate buffer; pH 6.0), endogenous peroxidase blocking (3% H202), and blocking were done using a standard protocol. […] Slides were developed with diaminobenzidine substrate (Vector Laboratories SK-4100) and counterstained with hematoxylin (Richard Allen Scientific). Slides were scanned (Olympus VS200) and representative brightfield images were taken and analyzed with OlyVIA software.

male TRAIL-/- mice = assay: Masson's trichrome stain of lung 22 weeks post-radiation (late fibrosis); assay type: in vivo, mouse; conditions: 18 Gy, 10 mg/kg twice a week
Excerpt: In order to examine the late term effects of thoracic radiation, we designed an experiment where the single radiation dose was lowered to 18 Gy in male TRAIL-/- mice. […] At 22 weeks when mice reached criteria for euthanasia, they were sacrificed and lung tissue was harvested. Lung tissue slides were stained with Masson's trichrome and imaged at 10X on an Olympus VS200 slide scanner.

[5] = all mice, treated versus control
[6] = lung, 20 Gy, relative to control
[7] = irradiated rescued versus irradiated control lung tissues
[8] = normal or inflamed lung, treated versus irradiated control

## TLY012: N-terminal PEGylated recombinant human TRAIL; PEGylated trimeric TRAIL formulation
duodenum, liver or heart
  toxicities in duodenum, liver or heart: No obvious toxicities
[1]; TRAIL-/- mice, 20 Gy, treated versus control
  genes with statistically significant differential expression: 16
[1]; [5]
  “Antigen Processing” pathway score: significant increases
  “Interferon” pathway score: significant increases
[1]; female cohort
  “Antigen Processing” pathway score: significant increases
  “Basic Cell Functions” pathway score: decrease
  “Dendritic Cell Functions” pathway score: significant increases
  “MHC” pathway score: significant increases
[1]; [6]
  BCL6 mRNA: downregulated
  CCL6 mRNA: upregulated
  DOCKS mRNA: downregulated
  FOXJ1 mRNA: downregulated
  H2-Q2 mRNA: downregulated
  HERC6 mRNA: upregulated
  IKZF2 mRNA: downregulated
  IL1RL2 mRNA: upregulated
  KLRA7 mRNA: upregulated
  MAPK8 mRNA: downregulated
  PTGS2 mRNA: downregulated
  RAET1A mRNA: downregulated
  RELB mRNA: upregulated
  RRAD mRNA: downregulated
  TMEM173 mRNA: upregulated
  TNFSF10 mRNA: upregulated
TRAIL-/- mice [2]
  rescue from radiation pneumonitis: rescued
TRAIL-/- mice [3]; female TRAIL-/- mice, 15 Gy, FIG. 3B
  protection from lethality: protection from lethality
TRAIL-/- mice [3]; female TRAIL-/- mice, 18 Gy whole-thorax irradiation, FIG. 3B
  survival: 3 weeks
TRAIL-/- mice [3]; male TRAIL-/- mice, 18 Gy chest irradiation, 10 mg/kg, FIG. 3A
  survival / rescue from lethality: increased survival; also recorded: rescue from lethality
[4]; [7]
  NFkB: no differences
  proliferation: no differences
[4]; [8]
  DNA double strand break marker gamma-H2AX: no difference
  T-cell infiltration (CD3-epsilon): no difference
[4]; rescued lungs versus irradiated control
  collagen in lungs: less collagen
Male TRAIL-/- mice
  collagen deposition / fibrosis (Masson's trichrome): rescue; also recorded: decrease in collagen deposition; also recorded: less fibrosis

Source: patent US20230414715A1, “TRAIL COMPOUNDS FOR REDUCING CANCER TREAMENT SIDE EFFECTS” (BROWN UNIVERSITY, priority 2022, published 2023)
